Structures are written as SMILES. pKi: −log10 of the molar value. Structures can show the parent of a compound that is named as a salt. Some results are limits rather than exact numbers.

This is an account of results in patent publication US6387893B1, “Spirotricyclic substituted azacycloalkane derivatives and uses thereof” (Merck & Co., Inc., priority 1999, dated 2002).

The target in data set [1] is T1, human alpha 1a adrenergic receptor (Homo sapiens, UniProt P35348).
T1 sequence (P35348 1-466): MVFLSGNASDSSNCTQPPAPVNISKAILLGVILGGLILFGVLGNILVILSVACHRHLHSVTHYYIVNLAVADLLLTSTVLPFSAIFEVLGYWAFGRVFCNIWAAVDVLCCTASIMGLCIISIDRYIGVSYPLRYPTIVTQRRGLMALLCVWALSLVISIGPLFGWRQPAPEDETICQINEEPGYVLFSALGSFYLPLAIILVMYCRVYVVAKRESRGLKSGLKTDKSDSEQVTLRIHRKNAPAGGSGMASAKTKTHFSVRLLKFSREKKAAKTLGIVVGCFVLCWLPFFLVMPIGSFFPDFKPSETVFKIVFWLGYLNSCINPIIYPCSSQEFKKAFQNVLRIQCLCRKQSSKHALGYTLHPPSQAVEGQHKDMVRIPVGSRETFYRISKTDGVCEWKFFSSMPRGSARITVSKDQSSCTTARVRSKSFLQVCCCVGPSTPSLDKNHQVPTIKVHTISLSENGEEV
Description: Screening assay: alpha 1a adrenergic receptor binding ([125I]-HEAT competition). The settings on record: membranes from stably transfected human alpha 1a cell line (ATCC CRL 11140), 100 pM [125I]-HEAT. As for the experimental part:
Screening Assay: Alpha 1a Adrenergic Receptor Binding
Membranes prepared from the stably transfected human alpha 1a cell line (ATCC CRL 11140) were used to identify compounds that bind to the human alpha 1a adrenergic receptor. These competition binding reactions (total volume=200 μl) contained 50 mM Tris-HCl pH. 7.4, 5 mM EDTA, 150 mM NaCl, 100 pM [^125I]-HEAT, membranes prepared from the alpha 1a cell line and increasing amounts of unlabeled ligand. Reactions were incubated at room temperature for one hour with shaking. Reactions were filtered onto Whatman GF/C glass fiber filters with a Inotec 96 well cell harvester. Filters were washed three times with ice cold buffer and bound radioactivity was determined (Ki).

On to `O=C1OC[C@H](c2ccc(F)c(F)c2)N1CCCCCCN1CCC2(CC1)c1ccccc1Sc1ccccc12` (as salt: HCl) [Example 20, 4-(S)-(3,4-Difluorophenyl)-3-[6-(spirothioxanthen-9,4′-piperidin-1′-yl)-hexyl]-oxazolidin-2-one], for which the melting point (commonly the temperature of the solid-liquid transition) was 90 to 130 °C.

With `O=C(NCCCN1CCC2(CC1)c1ccccc1CCc1ccccc12)N1C(=O)OC[C@@H]1c1ccc(F)c(F)c1` (as salt: hydrochloride) [Example 57, 1′-{3-[4(S)-(3,4-difluorophenyl)-2-oxooxazolidin-3-carbonylamino]-propyl}-(10,11-dihydrospiro-5H-dibenzo[a,d]cycloheptene)-5,4′-piperidine], the melting point was 146 to 177 °C.

Turning to `COCC1=C(C(=O)OC)[C@H](c2ccc(F)c(F)c2)N(C(=O)NCCCN2CCC3(CC2)c2ccccc2S(=O)(=O)c2ccccc23)C(=O)N1` (as salt: HCl) [Example 33, 1,2,3,6-tetrahydro-1-[(10,10-dioxo-spirothioxanthene-9,4′-piperidin-1′-yl)propyl]aminocarbonyl-5-methoxycarbonyl-4-methoxymethyl-6(S)-(3,4-difluorophenyl)-2-oxopyrimidine], the melting point fell in the range of 158 to 196 °C.

In turn, `O=C1OCC(c2ccc(F)c(F)c2)N1CCCCN1CCC2(CC1)c1ccccc1Sc1ccccc12` (centres unmarked) (as salt: HCl) displayed a melting point of 97 to 132 °C.

Molecule `COCC1=C(C(=O)OC)[C@H](c2ccc(F)c(F)c2)N(C(=O)NCCCN2CCC3(CC2)c2ccccc2-c2ncccc23)C(=O)N1` (as salt: hydrochloride) [Example 49] yielded a melting point of 157 to 180 °C.

`COCC1=C(C(=O)OC)C(c2ccc(F)c(F)c2)N(C(=O)NCCCN2CCC3(CC2)c2ccccc2Sc2ccccc23)C(=O)N1` (centres unmarked) (as salt: HCl): the melting point lay within 140 to 170 °C.

On to `O=C1OC[C@H](c2ccc(F)c(F)c2)N1CCCCCN1CCC2(CC1)c1ccccc1CCc1ccccc12` (as salt: hydrochloride) [Example 58, 1′-{5-[4(S)-(3,4-difluorophenyl)-2-oxooxazolidin-3-yl]-pentyl}-(10,11-dihydrospiro-5H-dibenzo[a,d]cycloheptene)-5,4′-piperidine], for which the melting point was in the range of 232 to 236 °C.

As to `O=C(NCCCN1CCC2(CC1)c1ccccc1S(=O)(=O)c1ccccc12)N1C(=O)OC[C@@H]1c1ccc(F)c(F)c1` (as salt: HCl) [Example 32, 1′-{3-[(4S)-(3,4-Difluorophenyl)-2-oxooxazolidin-3-carbonylamino]propyl}-(10,10-dioxo-spirothioxanthene-9,4′-piperidine)], the melting point fell in the range of 158 to 187 °C.

`O=C1OC[C@H](c2ccc(F)c(F)c2)N1CCCCCN1CCC2(CC1)c1ccccc1Sc1ccccc12` (as salt: HCl) [Example 19, 4-(S)-(3,4-Difluorophenyl)-3-[5-(spirothioxanthen-9,4′-piperidin-1′-yl)-pentyl]-oxazolidin-2-one] had a melting point of 90 to 130 °C.

`O=C(NCCCN1CCC2(CC1)c1ccccc1Oc1ccccc12)N1C(=O)OC[C@@H]1c1ccc(F)c(F)c1` [Example 35, 1′-{3-[(4S)-(3,4-Difluorophenyl)-2-oxooxazolidin-3-carbonylamino]propyl}spiroxanthene-9,4′-piperidine] yielded a melting point of 138 to 139 °C. Besides, the pKi (usually the negative decadic logarithm of the Ki, by convention in mol/L) in data set [1] was greater than 7.70.
